The species entered for series [1] is Rattus norvegicus. As to the kind of experiment: Vasorelaxation activity in rat mesenteric arteries after contractile stimulus(K+ depolarization).
Series [2] deals with T1, Voltage-dependent L-type calcium channel subunit alpha-1C (Homo sapiens, UniProt Q13936). Briefly: Inhibition of VGCC alpha-1C-b expressed in CHO cells -30 mV holding potential, peak Ba2+ current, at 10e-5 M. It is filed as functional, cell-based.
Series [3] deals with T1, Voltage-dependent L-type calcium channel subunit alpha-1C. Briefly: Inhibition of VGCC alpha-1C-b expressed in CHO cells -80 mV holding potential, peak Ba2+ current, at 10e-5 M. It is filed as functional, cell-based. To be noted: hamster.
A short description of series [4]: Inhibition of [3H]P1075 binding to ATP-sensitive potassium channels of rat cardiac membranes. It is filed as cell membranes, Membrane.
The species entered for series [5] is Rattus norvegicus. As to the kind of experiment: Vasorelaxation activity in rat mesenteric arteries after contractile stimulus(K+ depolarization).
For series [6], the species on record is Rattus norvegicus. Briefly: Vasorelaxation activity in rat mesenteric arteries after contractile stimulus (norepinephrine).
Series [7] concerns the target T1, Voltage-dependent L-type calcium channel subunit alpha-1C. Briefly: Inhibition of VGCC alpha-1C-b expressed in CHO cells -30 mV holding potential, peak Ba2+ current, at 10e-4 M. The format is functional, cell-based.
The target is the same in series [8]. As to the kind of experiment: Inhibition of VGCC alpha-1C-b expressed in CHO cells -80 mV holding potential, peak Ba2+ current, at 10e-4 M. The format is functional, cell-based.
A short description of series [9]: Vasorelaxation in rat mesenteric arteries after contractile stimulus (norepinephrine+glibenclamide). It is filed as functional.
For series [10], the target named is T1, Voltage-dependent L-type calcium channel subunit alpha-1C. As to the kind of experiment: Inhibition of VGCC alpha-1C-b expressed in CHO cells -30 mV holding potential, peak Ba2+ current, at 10e-6 M. It is filed as functional, cell-based.
For series [11] the target is unchanged. Briefly: Inhibition of VGCC alpha-1C-b expressed in CHO cells -80 mV holding potential, peak Ba2+ current, at 10e-6 M. The format is functional, cell-based.

T1 sequence (Q13936 whole entry): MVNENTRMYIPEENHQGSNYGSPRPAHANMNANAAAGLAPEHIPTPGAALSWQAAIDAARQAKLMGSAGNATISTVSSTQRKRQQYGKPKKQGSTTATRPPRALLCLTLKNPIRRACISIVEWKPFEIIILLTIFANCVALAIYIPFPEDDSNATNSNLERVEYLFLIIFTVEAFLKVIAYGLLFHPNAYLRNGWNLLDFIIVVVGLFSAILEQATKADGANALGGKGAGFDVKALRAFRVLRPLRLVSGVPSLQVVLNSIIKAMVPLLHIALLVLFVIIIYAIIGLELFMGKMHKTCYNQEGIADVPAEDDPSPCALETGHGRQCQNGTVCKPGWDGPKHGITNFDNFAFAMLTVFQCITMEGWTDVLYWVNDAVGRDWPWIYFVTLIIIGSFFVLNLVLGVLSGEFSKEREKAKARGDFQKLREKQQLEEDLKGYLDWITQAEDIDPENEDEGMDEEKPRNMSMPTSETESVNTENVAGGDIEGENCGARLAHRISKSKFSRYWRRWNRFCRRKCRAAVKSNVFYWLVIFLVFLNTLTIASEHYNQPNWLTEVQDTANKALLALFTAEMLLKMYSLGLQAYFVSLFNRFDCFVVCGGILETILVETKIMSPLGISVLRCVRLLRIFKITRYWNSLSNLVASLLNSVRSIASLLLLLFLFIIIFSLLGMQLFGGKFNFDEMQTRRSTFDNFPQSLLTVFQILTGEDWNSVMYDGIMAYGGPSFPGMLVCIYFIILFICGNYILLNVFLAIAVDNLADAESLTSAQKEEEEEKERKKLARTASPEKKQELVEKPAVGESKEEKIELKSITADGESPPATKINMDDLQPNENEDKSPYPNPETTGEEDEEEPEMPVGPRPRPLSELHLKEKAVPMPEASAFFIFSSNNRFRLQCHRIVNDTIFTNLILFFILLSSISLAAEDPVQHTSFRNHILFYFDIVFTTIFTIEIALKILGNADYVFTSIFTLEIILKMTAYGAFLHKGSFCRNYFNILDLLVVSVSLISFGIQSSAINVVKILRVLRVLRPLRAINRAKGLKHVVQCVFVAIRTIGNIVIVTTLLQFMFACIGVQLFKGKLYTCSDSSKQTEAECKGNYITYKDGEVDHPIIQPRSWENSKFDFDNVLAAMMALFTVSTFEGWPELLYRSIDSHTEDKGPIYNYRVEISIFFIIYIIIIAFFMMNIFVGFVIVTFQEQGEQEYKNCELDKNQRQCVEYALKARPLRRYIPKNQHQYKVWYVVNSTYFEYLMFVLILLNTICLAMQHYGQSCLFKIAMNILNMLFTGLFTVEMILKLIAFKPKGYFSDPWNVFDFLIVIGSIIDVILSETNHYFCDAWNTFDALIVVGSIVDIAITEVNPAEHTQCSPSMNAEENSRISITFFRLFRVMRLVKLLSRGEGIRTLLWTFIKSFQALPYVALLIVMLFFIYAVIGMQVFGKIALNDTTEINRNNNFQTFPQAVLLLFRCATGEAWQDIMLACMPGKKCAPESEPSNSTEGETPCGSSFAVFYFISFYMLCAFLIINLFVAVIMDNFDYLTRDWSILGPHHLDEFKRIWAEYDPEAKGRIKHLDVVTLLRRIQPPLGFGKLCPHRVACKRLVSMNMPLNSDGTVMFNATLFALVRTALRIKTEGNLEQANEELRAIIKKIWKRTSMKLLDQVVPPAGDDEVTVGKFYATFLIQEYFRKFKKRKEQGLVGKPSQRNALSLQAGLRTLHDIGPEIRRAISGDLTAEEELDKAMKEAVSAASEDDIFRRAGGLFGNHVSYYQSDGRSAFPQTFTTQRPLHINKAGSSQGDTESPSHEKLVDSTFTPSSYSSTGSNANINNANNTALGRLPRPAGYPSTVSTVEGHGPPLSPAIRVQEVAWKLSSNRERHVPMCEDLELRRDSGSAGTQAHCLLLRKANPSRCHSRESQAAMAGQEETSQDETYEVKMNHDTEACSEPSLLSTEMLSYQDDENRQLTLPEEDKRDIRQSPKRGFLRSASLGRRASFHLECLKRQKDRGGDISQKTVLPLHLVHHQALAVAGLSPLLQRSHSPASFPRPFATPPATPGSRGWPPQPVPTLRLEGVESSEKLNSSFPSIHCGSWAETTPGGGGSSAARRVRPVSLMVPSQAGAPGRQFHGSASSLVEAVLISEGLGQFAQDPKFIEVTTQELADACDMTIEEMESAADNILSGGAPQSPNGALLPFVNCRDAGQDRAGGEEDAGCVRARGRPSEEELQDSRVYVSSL

As a reminder, the EC50 is the concentration needed to bring the measured effect to its halfway point. The compound `CO/C(O)=C1\C(C)=NC(C)=C(C#N)C1c1cc(N/C(=N/C(C)C(C)(C)C)NC#N)ccc1OC(F)F` (stereo not drawn) gave an EC50 in series [1] of 2340 nM.
Usually pIC50 stands for the IC50 on a negative log10 scale, so that one unit is a factor of ten. A lower pIC50 goes with a large IC50. Regarding `CC(/N=C(\NC#N)Nc1ccc(OC(F)F)cc1)C(C)(C)C` (stereo not drawn), the Peak current in series [2] worked out at 10.8%; in [3] it was 58.2%; in series [7], 2.4%; in series [8], 26.7%. In [4], this compound came in with a pIC50 of 8.7. The EC50 in series [5] is 7410 nM; in [6], 288 nM. Further, the “Log EC50” value in series [9] is listed as -6.12.
For the compound `CCOC(=O)C1=C(C)N=C(C)/C(=C(/O)OCC)C1c1cc(N/C(=N/C(C)C(C)(C)C)NC#N)ccc1OC(F)F` (stereo not drawn), the EC50 in series [5] was 955 nM.
`COC(=O)C1=C(C)N=C(C)/C(=C(/O)OC)C1c1cc(N/C(=N/C(C)C(C)(C)C)NC#N)ccc1OC(F)F` (stereo not drawn): the Peak current in series [2] is 2.5%; in series [3], 38.2%; in series [10], 9.2%; in series [11] it was 60.4%. Further, the pIC50 in series [4] amounted to 6.2. The EC50 in series [5] is 372 nM; in series [6], 200 nM. For the same compound, the “Log EC50” value in [9] is -6.2.

The record behind these values is ChEMBL document CHEMBL1132542, “Vasorelaxation by new hybrid compounds containing dihydropyridine and pinacidil-like moieties” (J Med Chem, 1999).
